Values quoted from earlier work, collected in patent US20230013403A1, “COMPOSITIONS COMPRISING HUMAN MILK OLIGOSACCHARIDES FOR USE IN A SUBJECT TO SUPPORT LANGUAGE DEVELOPMENT” (SOCIETE DES PRODUITS NESTLE S.A., priority 2019, published 2023).

Test system: rodents
Conditions: chronic oral administration

2′ fucosyllactose [2′FL]
learning and working memory functions of treated animals: significantly better
